Experimental data: US20050014811A1, “Substituted benzimidazole compounds and their use for the treatment of cancer” (Aventis Pharma S.A., priority 2001, published 2005)

What was measured:
[1] = target: CDK2/CyclinE (Homo sapiens, UniProt P24941); assay: CDK2/CyclinE Flashplate assay, 96-well format, biotinylated-Rb peptide substrate; format: biochemical
Experimental: This is a CDK2/CyclinE kinase assay in a 96-well Streptavidin-coated Flashplate with a biotinylated-Rb peptide substrate.
Each point is tested in duplicate
Biotinylated-Rb: Biotin-[…]-OH
• 1. Prepare substrate: 1 mg/ml solution made fresh in PBS. • 2. Add 4 μg per well to the Flashplate. • 3. Incubate for 2 hours at RT. • 4. From 10 mM inhibitor stocks in DMSO, make 1 mM, 300 μM, 100 μM, 30 μM and 10 μM series of dilution in DMSO. • 5. Was the Flashplate 3 times with 300 μl PBS to remove unbound peptide substrate. • 6. Add the CDK2/CyclinE kinase: 200 ng per well, in a volume of 90 μl in kinase buffer (except for “no enzyme” control wells). • 7. Add 1 μl per well of inhibitor to test 10 μM, 3 μM, 1 μM, 0.3 μM and 0.1 μM in final concentration per 100 μl in each well. • 8. Shake gently the Flashplate 1 minute. • 9. Incubate 30 minutes on wet ice. • 10. Initiate the reaction with 10 μl kinase buffer containing 1 μM final cold ATP and 1 μCi final ^33P-ATP per well. • 11. Shake gently the Flashplate 1 minute. • 12. Incubate 45 minutes at RT (no shaking). • 13. Wash the Flashplate 3 times with 300 μl PBS
14. Count to detect the incorporation of ^33P-ATP by the kinase to the Rb phosphorylation site.

[2] = target: CDK4/CyclinD1 (Homo sapiens, UniProt P11802); assay: CDK4/CyclinD1 Flashplate assay, 96-well format, biotinylated-Rb peptide substrate; format: biochemical
In short: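 Biotinylated Rb peptide bound to streptavidin Flashplate; CDK4/CyclinD1 (70 ng/well) preincubated 30 min on ice with compound at 10, 3, 1, 0.3 and 0.1 μM final. Reaction with 1 μM cold ATP plus 33P-ATP for 45 min at RT; incorporated 33P counted, duplicates.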

CDK4/CyclinD1, sequence (P11802 whole entry, species assumed): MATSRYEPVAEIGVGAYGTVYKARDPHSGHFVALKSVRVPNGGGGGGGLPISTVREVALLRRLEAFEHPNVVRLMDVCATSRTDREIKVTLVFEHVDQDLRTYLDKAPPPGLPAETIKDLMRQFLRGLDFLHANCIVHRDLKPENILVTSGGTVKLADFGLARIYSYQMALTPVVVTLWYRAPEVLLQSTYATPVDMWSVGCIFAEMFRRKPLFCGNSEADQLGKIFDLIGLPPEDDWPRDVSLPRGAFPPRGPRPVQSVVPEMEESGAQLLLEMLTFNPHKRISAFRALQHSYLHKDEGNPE
CDK4/CyclinD1, sequence (P24385 whole entry partner, species assumed): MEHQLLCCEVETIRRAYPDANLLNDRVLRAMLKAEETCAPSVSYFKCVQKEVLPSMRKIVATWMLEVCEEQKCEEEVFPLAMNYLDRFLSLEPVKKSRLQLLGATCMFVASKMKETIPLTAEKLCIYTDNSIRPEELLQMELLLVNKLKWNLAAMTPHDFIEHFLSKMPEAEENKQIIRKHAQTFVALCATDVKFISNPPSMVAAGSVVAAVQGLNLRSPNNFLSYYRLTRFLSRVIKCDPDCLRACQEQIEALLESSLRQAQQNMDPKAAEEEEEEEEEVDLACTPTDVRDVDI

Structure (SMILES) | IC50 [1] | IC50 [2] | inhibition at 10 µM [2]
O=C(Nc1nc2cc(OS(=O)(=O)c3ccc(NC4CCCC4)cc3)ccc2[nH]1)C1CC1 [Example 27, 4-Cyclopentylamino-benzenesulfonic acid 2-(cyclopropanecarbonyl-amino)-1H-benzoimidazol-5-yl ester] | 42 nM | 600 nM | –
CC(C)NCCNC(=O)Nc1nc2cc(OS(=O)(=O)c3ccc(NC4CCCC4)cc3)ccc2[nH]1 [Example 58-al, 4-Cyclopentylamino-benzenesulfonic acid 2-[3-(2-isopropylamino-ethyl)-ureido]-1H-benzoimidazol-5-yl ester] | 150 nM | 250 nM | –
COc1cccc(NC(=O)Nc2nc3cc(OS(=O)(=O)c4ccc(NC5CCCC5)cc4)ccc3[nH]2)c1 [Example 38, 4-Cyclopentylamino-benzenesulfonic acid 2-[3-(3-methoxy-phenyl)-ureido]-1H-benzoimidazol-5-yl ester] | 4300 nM | 1250 nM | –
O=C(NCc1ccccc1F)Nc1nc2cc(OS(=O)(=O)c3ccc(-n4ccnc4)cc3)ccc2[nH]1 [Example 57-h, 4-Imidazol-1-yl-benzenesulfonic acid 2-[3-(2-fluoro-benzyl)-ureido]-1H-benzoimidazol-5-yl ester] | 100 nM | 4400 nM | –
O=C(NCCN1CCCCC1)Nc1nc2cc(OS(=O)(=O)c3ccc(NC4CCCC4)cc3)ccc2[nH]1 [Example 58-aj, 4-Cyclopentylamino-benzenesulfonic acid 2-[3-(2-piperidin-1-yl-ethyl)-ureido]-1H-benzoimidazol-5-yl ester] | 370 nM | 380 nM | –
COc1ccc(NC(=O)Nc2nc3cc(OS(=O)(=O)c4ccc(NC5CCCC5)cc4)ccc3[nH]2)cc1 [Example 39, 4-Cyclopentylamino-benzenesulfonic acid 2-[3-(4-methoxy-phenyl)-ureido]-1H-benzoimidazol-5-yl ester] | 290 nM | 1620 nM | –
Cc1cc(C)cc(Nc2nc3cc(OS(=O)(=O)c4ccc(NC5CCCC5)cc4)ccc3[nH]2)c1 [Example 70-c, 4-Cyclopentylamino-benzenesulfonic acid 2-(3,5-dimethyl-phenylamino)-1H-benzoimidazol-5-yl ester] | 800 nM | 2000 nM | –
O=C(NCCO)Nc1nc2cc(OS(=O)(=O)c3ccc(-n4ccnc4)cc3)ccc2[nH]1 [Example 57-e, 4-Imidazol-1-yl-benzenesulfonic acid 2-[3-(2-hydroxy-ethyl)-ureido]-1H-benzoimidazol-5-yl ester] | 300 nM | – | 90%
COC(=O)Nc1nc2cc(OS(=O)(=O)c3ccc(NCC4CCCO4)cc3)ccc2[nH]1 (centres unmarked) [Example 18, Methyl-5-(4-[1-tetrathydrofurylmethyl]aminophenyl-sulfonyloxy) benzimidazole-2-carbamate] | 600 nM | 1300 nM | –
COC(=O)Nc1nc2cc(OS(=O)(=O)c3ccc(NCc4ccccn4)cc3)ccc2[nH]1 [Example 5, Methyl-5-(4-[2-pyridylmethyl]aminophenylsulfonyloxy) benzimidazole-2-carbamate] | 2200 nM | 1120 nM | –
CC(C)(C)NC(=O)Nc1nc2cc(OS(=O)(=O)c3ccc(NC4CCCC4)cc3)ccc2[nH]1 [Example 53, 4-Cyclopentylamino-benzenesulfonic acid 2-(3-tert-butyl-ureido)-1H-benzoimidazol-5-yl ester] | 800 nM | – | 83%
O=C(NCCN1CCOCC1)Nc1nc2cc(OS(=O)(=O)c3ccc(NC4CCCC4)cc3)ccc2[nH]1 [Example 58-v, 4-Cyclopentylamino-benzenesulfonic acid 2-[3-(2-morpholin-4-yl-ethyl)-ureido]-1H-benzoimidazol-5-yl ester] | 100 nM | 110 nM | –
O=C(NCCOCCO)Nc1nc2cc(OS(=O)(=O)c3ccc(NC4CCCC4)cc3)ccc2[nH]1 [Example 58-af, 4-Cyclopentylamino-benzenesulfonic acid 2-{3-[2-(2-hydroxy-ethoxy)-ethyl]-ureido}-1H-benzoimidazol-5-yl ester] | 180 nM | 210 nM | –
O=C(NCc1ccccc1)Nc1nc2cc(OS(=O)(=O)c3ccc(-n4ccnc4)cc3)ccc2[nH]1 [Example 57-l, 4-Imidazol-1-yl-benzenesulfonic acid 2-(3-benzyl-ureido)-1H-benzoimidazol-5-yl ester] | 70 nM | 1000 nM | –
O=C(NCc1ccncc1)Nc1nc2cc(OS(=O)(=O)c3ccc(NC4CCCC4)cc3)ccc2[nH]1 [Example 52, 4-Cyclopentylamino-benzenesulfonic acid 2-(3-pyridin-4-ylmethyl-ureido)-1H-benzoimidazol-5-yl ester] | 80 nM | 1000 nM | –
O=C(Nc1nc2cc(OS(=O)(=O)c3ccc(NC4CCCC4)cc3)ccc2[nH]1)NC1CCCC1 [Example 58-c, 4-Cyclopentylamino-benzenesulfonic acid 2-(3-cyclopentyl-ureido)-1H-benzoimidazol-5-yl ester] | 600 nM | – | 60%
O=C(Nc1nc2cc(OS(=O)(=O)c3ccc(NC4CCCC4)cc3)ccc2[nH]1)NC1CCC1 [Example 51, 4-Cyclopentylamino-benzenesulfonic acid 2-(3-cyclobutyl-ureido)-1H-benzoimidazol-5-yl ester] | 140 nM | 800 nM | –

Compounds with a lower IC50 [1], results first:

IC50 [1] | IC50 [2] | inhibition at 10 µM [2] | Structure (SMILES)
20 nM | 29 nM | – | COC(=O)CNC(=O)Nc1nc2cc(OS(=O)(=O)c3ccc(NC4CCCC4)cc3)ccc2[nH]1 [Example 58-o, 4-{3-[5-(4-Cyclopentylamino-benzenesulfonyloxy)-1H-benzoimidazol-2-yl]-ureido}-acetic acid methyl ester]
2 nM | 220 nM | – | O=C(NCCCCO)Nc1nc2cc(OS(=O)(=O)c3ccc(NC4CCCC4)cc3)ccc2[nH]1 [Example 58-ab, 4-Cyclopentylamino-benzenesulfonic acid 2-[3-(4-hydroxy-butyl)-ureido]-1H-benzoimidazol-5-yl ester]
7 nM | 900 nM | – | CCNC(=O)Nc1nc2cc(OS(=O)(=O)c3ccc(NCC4CCCO4)cc3)ccc2[nH]1 (centres unmarked) [Example 59-j, 4-[(Tetrahydro-furan-2-ylmethyl)-amino]-benzenesulfonic acid 2-(3-ethyl-ureido)-1H-benzoimidazol-5-yl ester]
40 nM | 300 nM | – | COCCNC(=O)Nc1nc2cc(OS(=O)(=O)c3ccc(NC4CCCC4)cc3)ccc2[nH]1 [Example 48, 4-Cyclopentylamino-benzenesulfonic acid 2-[3-(2-methoxy-ethyl)-ureido]-1H-benzoimidazol-5-yl ester]
15 nM | 500 nM | – | O=C(NCCCCO)Nc1nc2cc(OS(=O)(=O)c3ccc(NCC4CCCO4)cc3)ccc2[nH]1 (centres unmarked) [Example 59-d, 4-[(Tetrahydro-furan-2-ylmethyl)-amino]-benzenesulfonic acid 2-[3-(4-hydroxy-butyl)-ureido]-1H-benzoimidazol-5-yl ester]
5 nM | 500 nM | – | CNC(=O)Nc1nc2cc(OS(=O)(=O)c3ccc(NCC4CCCO4)cc3)ccc2[nH]1 (centres unmarked) [Example 54, 4-[(Tetrahydro-furan-2-ylmethyl)-amino]-benzenesulfonic acid 2-(3-methyl-ureido)-1H-benzoimidazol-5-yl ester]
8 nM | 100 nM | – | NC(=O)CNC(=O)Nc1nc2cc(OS(=O)(=O)c3ccc(NCC4CCCO4)cc3)ccc2[nH]1 (centres unmarked) [Example 59-a, 4-[(Tetrahydro-furan-2-ylmethyl)-amino]-benzenesulfonic acid 2-(3-carbamoylmethyl-ureido)-1H-benzoimidazol-5-yl ester]
40 nM | 500 nM | – | CN1CCN(CCCNC(=O)Nc2nc3cc(OS(=O)(=O)c4ccc(NC5CCCC5)cc4)ccc3[nH]2)CC1 [Example 58-k, 4-Cyclopentylamino-benzenesulfonic acid 2-{3-[3-(4-methyl-piperazin-1-yl)-propyl]-ureido}-1H-benzoimidazol-5-yl ester]
17 nM | 180 nM | – | O=C(NCCCN1CCCC1=O)Nc1nc2cc(OS(=O)(=O)c3ccc(NCC4CCCO4)cc3)ccc2[nH]1 (centres unmarked) [Example 59-p, 4-[(Tetrahydro-furan-2-ylmethyl)-amino]-benzenesulfonic acid 2-{3-[3-(2-oxo-pyrrolidin-1-yl)-propyl]-ureido}-1H-benzoimidazol-5-yl ester]
30 nM | 1000 nM | – | O=C(NCc1ccccc1)Nc1nc2cc(OS(=O)(=O)c3ccc(NC4CCCC4)cc3)ccc2[nH]1 [Example 58-l, 4-Cyclopentylamino-benzenesulfonic acid 2-(3-benzyl-ureido)-1H-benzoimidazol-5-yl ester]
7 nM | 1000 nM | – | O=C(NCCCO)Nc1nc2cc(OS(=O)(=O)c3ccc(NCC4CCCO4)cc3)ccc2[nH]1 (centres unmarked) [Example 59-c, 4-[(Tetrahydro-furan-2-ylmethyl)-amino]-benzenesulfonic acid 2-[3-(3-hydroxy-propyl)-ureido]-1H-benzoimidazol-5-yl ester]
